Calls of active or inactive are those of the source. The rule behind the calls is not given here.
Key:
[1] = test system: 2008; assay: Induction of apoptosis in human OV2008 cells assessed as condensation of nuclei at 0.5 to 2 uM measured after overnight incubation by DAPI-staining based microscopy; format: functional, cell-based
[2] = test system: CHO; assay: Cytotoxicity against CHO cells assessed as reduction in cell survival after 72 hrs by MTT assay; format: ADME, cell-based; conditions: Cricetulus griseus
[3] = test system: A2780; assay: Induction of apoptosis in human A2780 cells assessed as necrotic cells at 2 uM measured after overnight incubation by mitotracker red/alexa fluor-488 Annexin V staining-based flow cytometry (reference value: 9.94%); format: functional
[4] = test system: 2008; assay: Cell cycle arrest in human OV2008 cells assessed as accumulation at subG1 phase at 2 uM measured after overnight incubation by propidium iodide staining-based flow cytometry (reference value: 2.64%); format: functional
[5] = test system: HCT-116; assay: Cell cycle arrest in human HCT116 cells assessed as accumulation at G2 phase at 1 uM measured after overnight incubation by propidium iodide staining-based flow cytometry (reference value: 24%); format: functional
[6] = test system: HCT-116; assay: Antiproliferative activity against bak deficient human HCT116 cells after 72 hrs by MTT assay; format: functional, cell-based; conditions: HCT-116, 72 h
[7] = test system: HCT-116; assay: Induction of apoptosis in human HCT116 cells assessed as early apoptotic cells at 1 uM measured after overnight incubation by mitotracker red/alexa fluor-488 Annexin V staining-based flow cytometry (reference value: 8.36%); format: functional
[8] = test system: HCT-116; assay: Induction of apoptosis in human HCT116 cells assessed as necrotic cells at 2 uM measured after overnight incubation by mitotracker red/alexa fluor-488 Annexin V staining-based flow cytometry (reference value: 2.67%); format: functional
[9] = test system: HCT-116; assay: Induction of apoptosis in human HCT116 cells assessed as late apoptotic cells at 1 uM measured after overnight incubation by mitotracker red/alexa fluor-488 Annexin V staining-based flow cytometry (reference value: 0%); format: functional
[10] = Selectivity index, ratio of IC50 for CHO cells to IC50 for human HCT116 cells; format: toxicity; conditions: Chinese hamster (CHO cells), CHO cells versus HCT116 cells, read-out: Ratio IC50
[11] = Selectivity index, ratio of IC50 for CHO cells to IC50 for human GBM10 cells; format: toxicity; conditions: Chinese hamster (CHO cells), CHO cells versus GBM10 cells, read-out: Ratio IC50
[12] = test system: HCT-116; assay: Cell cycle arrest in human HCT116 cells assessed as accumulation at […] at 1 uM measured after overnight incubation by propidium iodide staining-based flow cytometry (reference value: 9.70%); format: functional
[13] = test system: 2008; assay: Induction of apoptosis in human OV2008 cells assessed as viable cells at 1 uM measured after overnight incubation by mitotracker red/alexa fluor-488 Annexin V staining-based flow cytometry (reference value: 80.5%); format: functional; conditions: read-out: Activity
[14] = test system: A2780; assay: Cell cycle arrest in human A2780 cells assessed as accumulation at S phase at 2 uM measured after overnight incubation by propidium iodide staining-based flow cytometry (reference value: 15.2%); format: functional
[15] = test system: HCT-116; assay: Induction of apoptosis in human HCT116 cells assessed as viable cells at 1 uM measured after overnight incubation by mitotracker red/alexa fluor-488 Annexin V staining-based flow cytometry (reference value: 89%); format: functional; conditions: read-out: Activity
[16] = Selectivity index, ratio of IC50 for CHO cells to IC50 for human A2780 cells; format: toxicity; conditions: Chinese hamster (CHO cells), CHO cells versus A2780 cells, read-out: Ratio IC50
[17] = test system: A2780; assay: Induction of cellular oxidative stress in human A2780 cells assessed as increase in ROS levels at 0.5 to 4 uM after 48 hrs by DCFDA dye-based fluorescence microscopic method; format: functional, cell-based
[18] = test system: 2008; assay: Induction of mitotic catastrophe in human OV2008 cells assessed as formation of de-condensed multiple micronuclei at 0.5 to 2 uM measured after overnight incubation by DAPI-staining based microscopy; format: functional, cell-based
[19] = test system: 2008; assay: Induction of apoptosis in human OV2008 cells assessed as necrotic cells at 1 uM measured after overnight incubation by mitotracker red/alexa fluor-488 Annexin V staining-based flow cytometry (reference value: 6.31%); format: functional
[20] = test system: 2008; assay: Cell cycle arrest in human OV2008 cells assessed as accumulation at G1 phase at 1 uM measured after overnight incubation by propidium iodide staining-based flow cytometry (reference value: 52.6%); format: functional
[21] = test system: HCT-116; assay: Antiproliferative activity against human HCT116 cells after 72 hrs by MTT assay; format: functional, cell-based; conditions: HCT-116, 72 h
[22] = test system: HCT-116; assay: Cell cycle arrest in human HCT116 cells assessed as accumulation at subG1 phase at 1 uM measured after overnight incubation by propidium iodide staining-based flow cytometry (reference value: 0.154%); format: functional
[23] = test system: A2780; assay: Antiproliferative activity against human A2780 cells after 72 hrs by MTT assay; format: functional, cell-based; conditions: A2780, 72 h
[24] = test system: HCT-116; assay: Induction of apoptosis in human HCT116 cells assessed as viable cells at 2 uM measured after overnight incubation by mitotracker red/alexa fluor-488 Annexin V staining-based flow cytometry (reference value: 89%); format: functional; conditions: read-out: Activity
[25] = test system: 2008; assay: Cell cycle arrest in human OV2008 cells assessed as accumulation at subG1 phase at 1 uM measured after overnight incubation by propidium iodide staining-based flow cytometry (reference value: 2.64%); format: functional
[26] = test system: A2780; assay: Cell cycle arrest in human A2780 cells assessed as accumulation at subG1 phase at 1 uM measured after overnight incubation by propidium iodide staining-based flow cytometry (reference value: 8.88%); format: functional
[27] = test system: A2780; assay: Induction of apoptosis in human A2780 cells assessed as early apoptotic cells at 2 uM measured after overnight incubation by mitotracker red/alexa fluor-488 Annexin V staining-based flow cytometry (reference value: 11.9%); format: functional
[28] = Selectivity index, ratio of IC50 for CHO cells to IC50 for human LN229 cells; format: toxicity; conditions: Chinese hamster (CHO cells), CHO cells versus LN229 cells, read-out: Ratio IC50
[29] = test system: 2008; assay: Cell cycle arrest in human OV2008 cells assessed as accumulation at G1 phase at 2 uM measured after overnight incubation by propidium iodide staining-based flow cytometry (reference value: 52.6%); format: functional
[30] = test system: A2780; assay: Induction of apoptosis in human A2780 cells assessed as viable cells at 1 uM measured after overnight incubation by mitotracker red/alexa fluor-488 Annexin V staining-based flow cytometry (reference value: 78.1%); format: functional; conditions: read-out: Activity
[31] = Antiproliferative activity against human GBM10 cells after 72 hrs by MTT assay; format: functional, cell-based; conditions: GBM10, 72 h
[32] = test system: A2780; assay: Induction of apoptosis in human A2780 cells assessed as late apoptotic cells at 1 uM measured after overnight incubation by mitotracker red/alexa fluor-488 Annexin V staining-based flow cytometry (reference value: 0.015%); format: functional
[33] = test system: 2008; assay: Induction of mitotic catastrophe in human OV2008 cells assessed as formation of large with flattened cells at 0.5 to 2 uM measured after overnight incubation by DAPI-staining based microscopy; format: functional, cell-based
[34] = test system: A2780; assay: Induction of morphological changes in human A2780 cells at 0.1 to 3 uM after 68 hrs by microscopic method; format: functional, cell-based
[35] = test system: HCT-116; assay: Induction of cellular oxidative stress in human HCT116 cells assessed as increase in ROS levels at 0.5 to 4 uM after 48 hrs by DCFDA dye-based fluorescence microscopic method; format: functional, cell-based
[36] = test system: HCT-116; assay: Cell cycle arrest in human HCT116 cells assessed as accumulation at G1 phase at 1 uM measured after overnight incubation by propidium iodide staining-based flow cytometry (reference value: 63.5%); format: functional

**Q.** For COc1ccc(-c2nc(O)c3c4c(sc3n2)CCCC4)cc1, which Activity [1] is on record?
**A.** Active

**Q.** What about the IC50 [2] of the same molecule?
**A.** 14000 nM

**Q.** And the Activity [3]?
**A.** 5.77%

**Q.** And the Activity [4]?
**A.** 1.29%

**Q.** What about the Activity [5] of the same molecule?
**A.** 47.1%

**Q.** And the IC50 [6]?
**A.** 1400 nM

**Q.** What about the Activity [7] of the same molecule?
**A.** 11.6%

**Q.** What about the Activity [8] of the same molecule?
**A.** 3.04%

**Q.** And the Activity [9]?
**A.** 0%

**Q.** And the selectivity ratio [10]?
**A.** 17 to 28

**Q.** What about the selectivity ratio [11] of the same molecule?
**A.** 17 to 28

**Q.** And the Activity [12]?
**A.** 12.3%

**Q.** And the viability at 1 µM [13]?
**A.** 75.1%

**Q.** What about the Activity [14] of the same molecule?
**A.** 9.02%

**Q.** What about the viability at 1 µM [15] of the same molecule?
**A.** 87%

**Q.** And the selectivity ratio [16]?
**A.** 17 to 28

**Q.** And the Activity [17]?
**A.** Active

**Q.** And the Activity [18]?
**A.** Active

**Q.** What about the Activity [19] of the same molecule?
**A.** 4.31%

**Q.** What about the Activity [20] of the same molecule?
**A.** 19.5%

**Q.** And the IC50 [21]?
**A.** 600 nM

**Q.** What about the Activity [22] of the same molecule?
**A.** 0.087%

**Q.** And the IC50 [23]?
**A.** 1200 nM

**Q.** What about the viability at 2 µM [24] of the same molecule?
**A.** 71.1%

**Q.** What about the Activity [25] of the same molecule?
**A.** 4.17%

**Q.** And the Activity [26]?
**A.** 7.99%

**Q.** And the Activity [27]?
**A.** 51.2%

**Q.** And the selectivity ratio [28]?
**A.** 17 to 28

**Q.** And the Activity [29]?
**A.** 13.6%

**Q.** What about the viability at 1 µM [30] of the same molecule?
**A.** 73.8%

**Q.** And the IC50 [31]?
**A.** 800 nM

**Q.** What about the Activity [32] of the same molecule?
**A.** 0%

**Q.** What about the Activity [33] of the same molecule?
**A.** Active

**Q.** And the Activity [34]?
**A.** Active

**Q.** And the Activity [35]?
**A.** Active

**Q.** And the Activity [36]?
**A.** 37.5%
